Entries after “also recorded” stand apart in the source; their conditions may differ.
Experiments:
Sprague-Dawley rats [1] = assay: Von Frey mechanical nociceptive sensitivity threshold in healthy animals not treated with vincristine; assay type: in vivo, rat; conditions: 4 mg/kg every 2 days for 2 weeks
Excerpt: (§1) Adult male Sprague-Dawley rats weighing between 250 and 300 g were used. They came from the company Janvier (le Genest St. Isle, France). The care and handling of the animals were done in accordance with the guidelines from the Council of the European Community (86/609/EC) and in accordance with the ethical rules of the International Association for the Study of Pain. The protocol used to carry out the in vivo studies was subject to examination and authorization granted to Prof. Mensah-Nyagan's team by the Alsatian Department of the Veterinary Public Health Guide for the Care and Use of Laboratory Animals (Approval number 67-186). The rats were housed under standard conditions with a photoperiod of 12 h day/12 h night, with unlimited food and water. The animals spent one acclimatization week before being integrated into the experimental protocols. Each animal was examined daily to detect any signs of deterioration of its health condition, such as dramatic weight loss, a decrease in appetite during chemotherapy and pharmacological treatment.
(§2) The allopregnanolone in the derivatives according to the invention (BR053 and BR297) were diluted in a hydroxypropylcellulose (HPC) solution (0.3%) used as excipient. The curative treatment with allopregnanolone, BR053 or BR297 began 3 days after the vincristine cycles. Each of these compounds (allopregnanolone, BR053 or BR297) was administered by the intraperitoneal route at a dose of 4 mg/kg at a rate of one injection every 2 days. Thus, over the total duration of the in vivo experiments (14 days), each animal received 7 injections of excipient, allopregnanolone, BR053 or BR297, based on its group, at a dose of 4 mg/kg. The animals were sacrificed 24 hours after the last behavioral test (28th day) to remove tissues that will be used for later histology and electrophysiology studies.
The mechanical nociceptive sensitivity threshold was evaluated in rats placed in individual Plexiglas boxes (30×30×25 cm) mounted on a raised mesh support thereby allowing access to the surface or arch of the back feet. The presence of allodynia (exaggerated response following a normally […] stimulation) was measured using a series of calibrated von Frey filaments (1, 2, 4, 6, 8, 10, 15, 26, 100, 180 and 300 g; Stoelting, Wood Dale, Ill., USA), which were applied on the sole of the back foot of the animal with increasing force until the filament twisted. The filament was applied for a period of 1 to 2 seconds and the procedure was repeated 5 times at 4-5 second intervals. The withdrawal threshold of the foot was calculated by taking the average of 10 repeated stimuli (in grams) that caused a reflex to withdraw the foot. Only vigorous and fast withdrawals of the foot were considered positive. […]

[2] = tested on: type A GABA channel receptors (GABAa-R); assay: Whole-cell patch-clamp, effect on GABA-induced ionic current; assay type: cell-based, human; conditions: 0.25 μM compound, GABA 10 μM in the recording pipette, whole cell patch-clamp
Experimental: The studies were conducted using an electrophysiological approach. The activity of the cells was recorded using the patch-clamp technique in its so-called whole cell configuration. The mediums used for the recordings have the following composition (in mM): NaCl ([…]), KCl (2), CaCl2 (1), MgCl2 (2), HEPES (10) for the medium bathing the cells and NaCl (132), KCl (2), CaCl2 (1), MgCl2 (2), TEA (15), HEPES (10) for the recording pipette, the pH was adjusted in both cases to 7.4 with NaOH. The GABA 10 μM was added into the recording pipette.
After producing a “gigaseal” (Planar patch clamp) between the cellular membrane and the tip of a pipette with an electrical resistance comprised between 4 and 7 MO, the ionic currents were measured using a patch-clamp amplifier (Axopatch B200, Axon Instruments, CA). The acquisition of the signal (acquisition frequency of 10 kHz) was done using an interface card (Digidata 1322A, Axon Instruments, CA) and the pClamp 8 software (Axons Instruments, CA).
The allopregnanolone and the BR053, BR338, BR297 and BR351 derivatives were solubilized in pure ethanol before being diluted in the medium to the desired concentration. The dilution factor was at least equal to 2×10^4, which makes the final concentration of ethanol in the recording solution remain below […] (a concentration not affecting the activity of the GABAa receptor).
Depending on the experiments, the allopregnanolone or the BR053, BR338, BR297 or BR351 derivatives, at the concentration of 0.25 μM, were either added in the recording pipette at the same time as the GABA, or applied to the cell by perfusion.
The application was done by gravity through a multi-path perfusion system made up of glass tubes each having an inner diameter of 1 mm. The selected path was placed across from the recorded cell at approximately 100 μm. The solution was changed by calibrated rotation of the tubes using a stepping motor thus placing the new selected path across from the cell. Synchronously with that rotation, the solenoid valve controlling the flow of the selected path was also opened and the preceding one closed.

Sprague-Dawley rats [3] = assay: Von Frey filament test, painful neuropathy caused by vincristine; assay type: in vivo, rat; conditions: rats with vincristine neuropathy, 4 mg/kg i.p. every 2 days for 2 weeks
Excerpt: as §1
Vincristine sulfate (VINC), purchased from Sigma-Aldrich (St. Louis, Mo., USA), was dissolved in a physiological saline solution (NaCl 0.9%) at 0.1 mg/ml and stored at 4° C. The saline solution (NaCl 0.9%) is used as excipient. The VINC is injected daily by intraperitoneal injection (i.p.), in 2 cycles of 5 days separated by 2 days off, at a concentration of 0.1 mg/kg/day. The control animals were injected by i.p. (1 ml/kg) with the excipient using a similar protocol.
as §2
The mechanical nociceptive sensitivity threshold was evaluated in rats placed in individual Plexiglas boxes (30×30×25 cm) mounted on a raised mesh support thereby allowing access to the surface or arch of the back feet. The presence of allodynia (exaggerated response following a normally […] stimulation) was measured using a series of calibrated von Frey filaments (1, 2, 4, 6, 8, 10, 15, 26, 100, 180 and 300 g; Stoelting, Wood Dale, Ill., USA), which were applied on the sole of the back foot of the animal with increasing force until the filament twisted. The filament was applied for a period of 1 to 2 seconds and the procedure was repeated 5 times at 4-5 second intervals. The withdrawal threshold of the foot was calculated by taking the average of […] repeated stimuli (in grams) that caused a reflex to withdraw the foot. Only vigorous and fast withdrawals of the foot were considered positive. In the experiments, the naïve animals never responded to the 4 g filament and responded 25-30% of the time to the 15 g filament.

SMILES | Anti-nociceptive effect in healthy animals (Sprague-Dawley rats [1]) | Effect on the type A GABA receptor channel or GABAa-R [2] | Effect on mechanical allodynia and mechanical hyperalgesia (Sprague-Dawley rats [3])
C=CCO[C@H]1CC[C@]2(C)C3CC[C@@]4(C)C(CC[C@@H]4C(C)=O)C3CC[C@H]2C1 (stereo partly drawn) [BR297] | does not cause any anti-nociceptive effect | only partially mimics the positive allosteric effect; also recorded: Partial positive allosteric effect | eliminates the symptoms
CC(=O)[C@H]1CCC2C3CC[C@H]4C[C@@H](O)CC[C@]4(C)C3CC(=O)[C@@]21C (stereo partly drawn) [BR053] | does not cause any anti-nociceptive effect | negative allosteric action; also recorded: Negative allosteric effect | eliminates the symptoms
